Assay results taken from EP4512427A1, “ANTIBODY-DRUG CONJUGATES BASED ON MOLECULAR GLUE DEGRADERS AND USES THEREOF” (Mablink Bioscience, priority 2023, dated 2025).
“Also recorded” adds a separate entry of the source.

Legend:
in vitro = settings: PAMPA, pH 7.4
Method: Stock solutions of compounds of the invention were prepared in dimethyl sulfoxide (DMSO) to a final concentration of 10 mM. Each stock solution was diluted to 50 µM in pH 7.4 Prisma HT buffer (pION) in the presence of 10% MeOH (v/v). 200 µL were added to each well of the donor plate in quintuplicate. […] The acceptor filter plate was carefully placed on top of the donor plate to form a "sandwich." The sandwich was incubated at 25°C for 5 h, at 300 rpm. UV-vis spectra of the solutions in the blank, reference, acceptor, and donor plates were measured using a Tecan Infinite 200 PRO M Nano Plus microplate reader.

[1] = system: cancerous human cell lines; assay: In vitro cytotoxicity assay (MTT), side-by-side comparisons over the cell line panel; type: cell-based; settings: side-by-side comparison (Figures 1-3, Table 3), result in words
Method: In vitro cytotoxicity of compounds of the disclosure was assessed on several cancerous human cell lines. Cells were plated in 96-well plates at an appropriate density depending on the cell line (between 1000 and 10 000 cells/well in 100µL of appropriate culture media) and incubated at 37°C for 24 hours. Serial dilutions of the tested compound previously dissolved in culture media (50µL) were added, and incubation was carried at 37°C out for 6 days. MTT (5mg/mL in PBS, 20µL, Sigma-Aldrich) was added into the wells, and incubation was continued for 1 to 4 hours at 37°C. Culture media was then carefully removed, and well content was homogeneously dissolved with acidified isopropanol. Absorbance values were measured on a microplate reader using a wavelength of 570 nm (with a reference wavelength of 690 nm). The IC50 concentration values compared to untreated control cells were determined using inhibition dose response curve fitting (GraphPad Prism 9). Exatecan mesylate (cat#HY-13631A) and CR8 (CAS# 294646-77-8; cat#HY-18340) were purchased from MedChemExpress (China).

BCRP = target: T1, BCRP (Homo sapiens, UniProt Q9UNQ0); assay: BCRP efflux substrate assay in MDCK-BCRP; type: in vitro ADME; settings: dog, pH 7.4, MDCK-BCRP
T1 construct: host or cells: MDCK-BCRP (Preadyport)
T1 sequence (Q9UNQ0 1-655): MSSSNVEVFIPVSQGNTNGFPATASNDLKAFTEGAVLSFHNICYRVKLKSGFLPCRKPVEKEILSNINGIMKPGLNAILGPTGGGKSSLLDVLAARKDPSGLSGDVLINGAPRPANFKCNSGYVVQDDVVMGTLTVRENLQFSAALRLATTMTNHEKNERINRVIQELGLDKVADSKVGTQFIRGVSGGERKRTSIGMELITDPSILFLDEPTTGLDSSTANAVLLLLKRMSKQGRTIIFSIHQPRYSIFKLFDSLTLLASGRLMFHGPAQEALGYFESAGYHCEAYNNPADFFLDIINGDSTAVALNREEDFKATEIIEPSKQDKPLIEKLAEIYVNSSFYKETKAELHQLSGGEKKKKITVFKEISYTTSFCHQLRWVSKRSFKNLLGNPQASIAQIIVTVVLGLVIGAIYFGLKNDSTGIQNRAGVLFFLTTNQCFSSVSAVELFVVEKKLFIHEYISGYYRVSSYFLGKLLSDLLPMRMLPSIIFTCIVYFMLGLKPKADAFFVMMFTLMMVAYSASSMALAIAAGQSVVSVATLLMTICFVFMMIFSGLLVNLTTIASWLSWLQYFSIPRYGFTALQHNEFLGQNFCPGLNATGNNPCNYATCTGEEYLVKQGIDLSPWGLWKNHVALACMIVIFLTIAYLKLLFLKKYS
Method: MDR1 and BCRP efflux substrate assays were conducted in MDCK-MDR1 and MDCK-BCRP in vitro models (Preadyport™, Solvo Biotech) at Symeres (Nederland). Compound of the invention (donor well concentration of 5µM) were incubated in cell monolayer 24-transwell Preadyport system, using Preadyport recommended pH 7.4 assay buffer (donor and receiver wells). After 60 min of incubation (no shaking), samples are collected and suspended into triple volume of 66% cold acetonitrile. Samples are stored at -20°C until thawed, centrifuged and analyzed by LC-MS. Quinidine was used a positive control for the MDR1 assay, and prazosin was used as a positive control for the BCRP assay. Exatecan was used as a control, known not to be an MDR1 substrate. Residual DMSO content from compounds stock solutions was below 1% (v/v). The assay was performed in duplicate. The quantification of test compounds in donor or receptor compartment is conducted using relative LC/MS peak areas (samples of initial incubation solutions are used as a single point calibrator), without any spiked standard samples. The data is used for estimating apparent permeability (Papp) and calculation of efflux ratio.

CycK mRNA = CycK mRNA by RT-qPCR; type: cell-based, human; settings: JIMT-1 cells, 1µM, 2h
Method: 1×10^6 JIMT-1 cells were plated in 3mL of DMEM/FBS 90:10 (v/v) in 6-well plates and incubated overnight. Cells were treated with the compound 2384 of the invention, with CR8 (a known molecular glue degrader that depletes CycK) or with the proteasome inhibitor MG-132 (MedChemExpress, Cat HY-13259) for 2h. RNA was extracted using the QIAamp RNeasy Mini Kit (cat#74106, Qiagen) according to the manufacturer's protocol. Reverse transcription was performed using SuperScripr™ IV reverse transcriptase (cat#LT02241, Invitrogen). Quantitative PCR was performed using a No ROX Sybr Master Mix in the LightCycler 480 Real-Time PCR system (Roche Life Science).
Cyclin K forward ([…]) and reverse ([…]) primers were purchased from Eurogentec. Gene expression was normalized using ribosomal 28S as the housekeeping gene.

MDA-MB-231 = assay: In vitro cytotoxicity assay (MTT); type: cell-based, human; settings: Homo sapiens, 144 h, 6 days incubation
Procedure, shortened: (§1)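 Step 1: plate cells at line-dependent density (1000–10 000/well), 24 h, 37°C. Step 2: add serial compound dilutions, incubate 6 days. Step 3: MTT 1–4 h, solubilise in acidified isopropanol, read 570/690 nm, fit IC50 against untreated wells.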

BT-474 = assay: In vitro cytotoxicity assay (MTT); type: cell-based, human; settings: Homo sapiens, BT-474, 144 h
Procedure, shortened: as §1

SKBR-3 = assay: In vitro cytotoxicity assay (MTT); type: cell-based, human; settings: Homo sapiens, SK-BR-3, 144 h, 6 days incubation
Procedure, shortened: as §1

JIMT-1 = assay: In vitro cytotoxicity assay (MTT); type: cell-based, human; settings: Homo sapiens, 144 h, 6 days incubation
Procedure, shortened: as §1

NCI-N87 = assay: In vitro cytotoxicity assay (MTT); type: cell-based, human; settings: Homo sapiens, 144 h, 6 days incubation
Procedure, shortened: as §1

MDA-MB-453 = assay: In vitro cytotoxicity assay (MTT); type: cell-based, human; settings: Homo sapiens, 144 h, 6 days incubation
Procedure, shortened: as §1

N[C@H]1CC[C@H](Nc2nc(NCc3ccc(-c4ccccn4)cc3)n3ncc(Br)c3n2)CC1 [Compound 2384]
Papp at 5 h, 50 µM (in vitro): 84 ×10⁻⁶ cm/s | in vitro cytotoxicity potency [1]: more potent compared to its isopropyl counterpart; also recorded: drastically improved low nanomolar potencies | efflux ratio at 1 h, 5 µM (BCRP; read-out: Efflux ratio B/A): 9.24 | Papp A→B at 1 h, 5 µM (BCRP; 5µM, 60 min, read-out: Papp A (donor) to B (acceptor)): 5.49 ×10⁻⁶ cm/s | Papp B→A at 1 h, 5 µM (BCRP; 5µM, 60 min, read-out: Papp B (acceptor) to A (donor)): 50.7 ×10⁻⁶ cm/s | CycK mRNA level (CycK mRNA): not at the CycK mRNA level | IC50 (MDA-MB-231): 0.38 nM | IC50 (BT-474): 0.94 nM | IC50 (SKBR-3): 0.73 nM | IC50 (JIMT-1): 0.25 nM | IC50 (NCI-N87): 0.76 nM | IC50 (MDA-MB-453): 0.53 nM
